Values of other authors in patent US7208580B2, “Atomic structure of the hemalbumin complex and its use in designing therapeutic compounds” (New Century Pharmaceuticals, Inc., priority 2002, dated 2007).

Target: human albumin (Homo sapiens, UniProt P02768)
Sequence (P02768 25-609): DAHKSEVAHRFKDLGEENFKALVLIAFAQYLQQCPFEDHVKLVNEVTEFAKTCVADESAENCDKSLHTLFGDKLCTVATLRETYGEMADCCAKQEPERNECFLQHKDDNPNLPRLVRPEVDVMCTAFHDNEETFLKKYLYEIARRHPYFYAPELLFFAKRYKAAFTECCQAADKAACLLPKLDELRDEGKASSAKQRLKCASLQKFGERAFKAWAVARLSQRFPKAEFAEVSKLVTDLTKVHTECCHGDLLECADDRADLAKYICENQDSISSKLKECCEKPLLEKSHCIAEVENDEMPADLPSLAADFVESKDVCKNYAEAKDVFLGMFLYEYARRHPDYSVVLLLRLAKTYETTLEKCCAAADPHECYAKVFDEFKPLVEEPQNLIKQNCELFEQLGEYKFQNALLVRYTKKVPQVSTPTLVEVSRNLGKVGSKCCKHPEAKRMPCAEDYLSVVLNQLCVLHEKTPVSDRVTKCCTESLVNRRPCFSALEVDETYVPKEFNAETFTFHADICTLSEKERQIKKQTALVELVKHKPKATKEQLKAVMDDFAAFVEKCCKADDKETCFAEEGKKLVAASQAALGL

In the case of C=CC1=C(C)c2cc3[nH]c(cc4nc(cc5[nH]c(cc1n2)c(C)c5CCC(=O)O)C(CCC(=O)O)=C4C)c(C)c3C=C [protoporphyrin, Fe^III-Protoporphyrin-IX], the “binding constants for protoporphyrin at the specialized high affinity site” value (albumins from primates, printed as '1×10^8 Ka') is given as ~1×10^8.
For Fe^III Protoporphyrin-IX (Cl) [Hemin], the “KA, single high affinity site” value (hemin binding to human albumin, association constant from reference (9)) is given as 1.1e+08 M⁻¹.
